Holding throughout (format): functional, cell-based
One test has as its system A549. The test is described as follows: Cytotoxicity against human A549 cells by MTT assay.
The next test has as its system THP-1. Nature of the test: Cytotoxicity against human THP1 cells by MTT assay.
For the next test, the system named is A-375. The test is described as follows: Cytotoxicity against human A375 cells by MTT assay. (Formazan colour is commonly taken as a measure of viable cells.)
The subject of another test is HL-60. Nature of the test: Cytotoxicity against human HL60 cells by MTT assay. As to conditions: for pIC50: Homo sapiens, HL-60, read-out: IC50; call rule not given here.

pIC50: −log10 of the molar value.

As a reminder, the pIC50 is −log10 of the IC50, conventionally taken in molar units. With `C=C1CC[C@H]2C(C)(C)CCC[C@]2(C)[C@H]1C`, the pIC50 was 4.21 with A549, 4.27 with THP-1 and 4.30 in the test on A-375. Further, in the test on HL-60 (hl-60), the IC50 entry is reported as “Not Active”.
For `CC1(C)CCC[C@]2(C)[C@@H](/C=C/c3ccoc3)C(C=O)=C(O)C(=O)[C@@H]12`, the pIC50 was 4.42 in the test on A549, 4.63 with THP-1, 4.67 with A-375 and 4.80 with HL-60.
Regarding `CCOC(=O)/C=C/c1ccc(OC)cc1` [4-METHOXY ETHYL CINNAMATE], the figures for the pIC50 in the test on THP-1, in the test on A-375 and with HL-60 were 4.47, 4.50 and 4.53, respectively.
Turning to `O=c1cc(-c2ccccc2)oc2cc(O)cc(O)c12` [CHRYSIN], the pIC50 in the test on A549 is 4.70; with THP-1, 4.63; with A-375, 4.53; with HL-60, 4.47.
The matching figures for `C=C1CC[C@H]2C(C)(C)CCC[C@]2(C)[C@H]1/C=C/c1ccoc1` [CORONARIN E]: 4.27, 4.47, 4.44 and 4.51.
For the compound `CCOC(=O)/C=C/c1ccccc1` [ETHYL CINNAMATE], the pIC50 in the test with A549 is 4.30; in the test on THP-1, 4.38; with A-375, 4.50; with HL-60, 4.45.
As for `COc1cc([C@@H]2c3cc4c(cc3[C@@H](O[C@@H]3O[C@@H]5CO[C@@H](C)O[C@H]5[C@H](O)[C@H]3O)[C@H]3COC(=O)[C@H]23)OCO4)cc(OC)c1O` [ETOPOSIDE], the values for the pIC50 with THP-1 and in the test on HL-60 were 5.74 and 5.67, respectively.
On to `CC1=CC(=O)[C@H]2C(C)(C)CCC[C@]2(C)[C@H]1/C=C/C(=O)O` [SPICATANOIC ACID], for which the pIC50 was 4.28 with A549, 4.41 in the test with THP-1, 4.25 with A-375 and 4.16 in the test with HL-60.
The matching figures for `CC1(C)CCC[C@]2(C)[C@@H](/C=C/c3ccoc3)C(CO)=CC(=O)[C@@H]12` [YUNNACORONARIN D]: 4.29, 4.23, 4.38 and 4.44.
